Source: US12590062B2, “PD-1/PD-L1 inhibitors” (Gilead Sciences, Inc., priority 2017, dated 2026)

Experiments:
PD-1/PD-L1 = PD-1/PD-L1 (Homo sapiens, UniProt Q9NZQ7); assay: PD-1/PD-L1 biochemical protein-protein interaction assay (ALPHA); type: binding; conditions: 0.3 nM His tagged PD-L1, 2.5 nM biotinylated Fc-PD-1, 60 minutes at 25° C., read-out: IC50 PD-L1-PD-1 Alpha IC50-mono PD-L1-fcP-D1
Method in brief: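 Final concentrations 0.3 nM His-tagged PD-L1 and 2.5 nM biotinylated Fc-PD-1 (extracellular domains) were reacted with compound for 60 min at 25° C in pH 7.4 Hepes/NaCl/EDTA/Tween/BSA buffer. Binding was then detected by ALPHA beads, and IC50 values were taken from four-parameter curve fitting.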

PD-L1 = biological target: T1, PD-L1 (Homo sapiens, UniProt Q9NZQ7); assay: PD-L1/PD-L1 dimerization biochemical protein-protein interaction assay (ALPHA); type: binding; conditions: compound-induced PD-L1 dimerization, head prints '1 nM' (0.5 nM His-tagged PD-L1 and 0.5 nM FLAG-tagged PD-L1), read-out: AC50 PDL1 Dimer Alpha 1 nM
T1 construct: determine if they can specifically dimerize the extracellular domains of PD-L1
Method in brief: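 ALPHA proximity assay of compound-induced dimerization of 0.5 nM His-tagged and 0.5 nM FLAG-tagged PD-L1 extracellular domains in Hepes pH 7.4 buffer, 2 h at 25 °C. Anti-His acceptor then anti-FLAG donor beads, 60 min each; AC50 from four-parameter fit.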

PD-1/PD-L1 interaction = biological target: T2, PD-1/PD-L1 interaction (Homo sapiens, UniProt Q9NZQ7); assay: PD-1/PD-L1 NFAT reporter co-culture assay; type: cell-based; conditions: Jurkat PD-1 NFAT-luciferase cells co-cultured with aAPC-PD-L1 CHO cells, 6 hrs at 37° C.; read-out: EC50 NFAT Luciferase
T2 construct: expressed in transfected cells; host or cells: CHO cells (aAPC-PD-L1) co-cultured with Jurkat cells overexpressing PD-1 and an NFAT-luciferase reporter
Method in brief: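 CHO aAPC-PD-L1 seeded overnight; PD-1/NFAT-luc Jurkat + cpd in RPMI 1640, 2% FBS added at once; 6 h, 37 °C; ONE-Glo luminescence; EC50, 4-parameter fit.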

T2 sequence (Q9NZQ7 19-290): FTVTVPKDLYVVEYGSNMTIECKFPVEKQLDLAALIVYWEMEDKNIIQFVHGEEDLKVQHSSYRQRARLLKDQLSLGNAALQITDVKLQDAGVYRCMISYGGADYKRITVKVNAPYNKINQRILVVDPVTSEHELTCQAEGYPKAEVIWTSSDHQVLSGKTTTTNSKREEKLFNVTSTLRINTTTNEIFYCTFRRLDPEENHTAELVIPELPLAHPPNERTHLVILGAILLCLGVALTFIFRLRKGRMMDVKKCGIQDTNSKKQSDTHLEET
PD-1/PD-L1, sequence (Q9NZQ7 19-238 limits assumed): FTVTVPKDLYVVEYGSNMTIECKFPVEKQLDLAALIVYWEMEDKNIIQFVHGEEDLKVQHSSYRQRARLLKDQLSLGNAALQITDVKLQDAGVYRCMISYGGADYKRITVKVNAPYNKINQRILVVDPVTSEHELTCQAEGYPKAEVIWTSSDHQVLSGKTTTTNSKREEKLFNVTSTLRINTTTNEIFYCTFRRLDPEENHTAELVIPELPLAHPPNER
T1 sequence (Q9NZQ7 19-238 limits assumed): as above
T1 sequence (Q9NZQ7 19-238 limits assumed): as above

SMILES	IC50 (PD-1/PD-L1) [nM]	AC50 (PD-L1) [nM]	EC50 (PD-1/PD-L1 interaction) [nM]
COc1nc(O[C@H]2CCc3c(-c4cccc(-c5cc(C)c(CNC[C@@H]6CCC(=O)N6)c(OC)n5)c4Cl)cccc32)c(Cl)cc1CN1CC[C@@](C)(C(=O)O)C1 [Example 488]	0.064	25.6	26
COc1nc(O[C@H]2CCc3c(-c4cccc(-c5cc(C)c(CNC[C@@H]6CCC(=O)N6)c(OC)n5)c4Cl)cccc32)c(Cl)cc1CN1CC[C@](C)(C(=O)O)C1 [Example 489]	0.064	18.3	18
COc1nc(O[C@H]2CCc3c(-c4cccc(-c5cc(C)c(CNC[C@@H]6CCC(=O)N6)c(OC)n5)c4Cl)cccc32)c(Cl)cc1CN1CC[C@@H](C(=O)O)C1 [Example 490]	0.064	14.1	19
COc1nc(O[C@H]2CCc3c(-c4cccc(-c5cc(C)c(CNC[C@@H]6CCC(=O)N6)c(OC)n5)c4Cl)cccc32)c(Cl)cc1CN1CC[C@H](C(=O)O)C1 [Example 491]	0.064	19.8	21
Cc1c(COc2cc(OCc3cncc(C#N)c3)c(CNC[C@@H]3CCC(=O)N3)cc2Cl)cccc1-c1cccc(-c2ccc(CNC[C@@H]3CCC(=O)N3)cc2)c1C [Example 497]	1.43	302	182
COc1cc(-c2cccc(-c3cccc(COc4cc(OCc5cncc(C#N)c5)c(CNC[C@@H](O)CC(=O)O)cc4Cl)c3C)c2C)ccc1CN [Example 507]	0.693	262	210
Cc1c(COc2cc(OCc3cncc(C#N)c3)c(CN3C[C@@H](O)C[C@H]3C(=O)O)cc2Cl)cccc1-c1cccc(-c2ccc(OCCNCCO)cc2)c1C [Example 510]	0.064	232	147
COc1cc(-c2cccc(-c3cccc(-c4cc(F)c(CNC[C@@H]5CCC(=O)N5)c(OC)c4)c3Cl)c2Cl)cc(F)c1CNC[C@@H]1CCC(=O)N1 [Example 512]	0.526	255	131
COc1cc(-c2cccc(-c3cccc(-c4ccc(CNC[C@@H]5CCC(=O)N5)c(OC)c4)c3Cl)c2Cl)ccc1CNC[C@@H]1CCC(=O)N1 [Example 513]	0.301	89.3	47
Cc1c(COc2cc(OCc3cncc(C#N)c3)c(CNC[C@@H](O)CC(=O)O)cc2Cl)cccc1-c1cccc(-c2ccc(CNC[C@@H](O)CC(=O)O)c(-c3ccccc3)c2)c1C [Example 514]	0.735	359	156
Cc1c(COc2cc(OCc3cncc(C#N)c3)c(CN[C@@](C)(CO)C(=O)O)cc2Cl)cccc1-c1cccc(-c2ccc(OCCN3CCC4(CCCNC4=O)CC3)cc2)c1C [Example 516]	0.065	104	92
Cc1c(COc2cc(OCc3cncc(C#N)c3)c(CNC[C@@H](O)CC(=O)O)cc2Cl)cccc1-c1cccc(-c2ccc(OCCN3CC4(CCC(=O)N4)C3)cc2)c1C [Example 519]	0.064	103	125
Cc1c(COc2cc(OCc3cncc(C#N)c3)c(CN[C@@](C)(CO)C(=O)O)cc2Cl)cccc1-c1cccc(-c2ccc(OCCN3CC4(CCC(=O)N4)C3)cc2)c1C [Example 520]	0.064	57.5	97
Cc1c(COc2cc(OCc3cncc(C#N)c3)c(CN[C@@](C)(CO)C(=O)O)cc2Cl)cccc1-c1cccc(-c2ccc(OCCN3CCC4(CC3)CNC(=O)C4)cc2)c1C [Example 521]	0.064	125	106
Cc1c(COc2cc(OCc3cncc(C(=O)O)c3)c(CN[C@@](C)(CO)C(=O)O)cc2Cl)cccc1-c1cccc(-c2ccc(OCCN3CC[C@@H](O)C3)cc2)c1C [Example 522]	0.064	74.3	195
COc1cc(OCc2cccc(-c3cccc(COc4cc(OC)c(CNC[C@@H](O)CC(=O)O)cc4C#N)c3C)c2C)c(C#N)cc1CNC[C@@H](O)CC(=O)O [Example 523]	0.295	≥ 10000	129

Results, then the compound that gave them:

IC50 (PD-1/PD-L1) [nM]	AC50 (PD-L1) [nM]	EC50 (PD-1/PD-L1 interaction) [nM]	SMILES
0.115	84.7	111	Cc1c(COc2cc(OCc3cncc(C#N)c3)c(CN[C@@](C)(CO)C(=O)O)cc2Cl)cccc1-c1cccc(-c2cccc([C@@H](C)N)c2)c1C [Example 498]
0.093	86.5	59	Cc1c(COc2cc(OCc3cncc(C#N)c3)c(CN[C@@](C)(CO)C(=O)O)cc2Cl)cccc1-c1cccc(-c2cccc([C@H](C)N)c2)c1C [Example 499]
0.064	50.1	97	Cc1c(COc2cc(OCc3cncc(C#N)c3)c(CN[C@@](C)(CO)C(=O)O)cc2Cl)cccc1-c1cccc(-c2ccc(C3=NCCN3)cn2)c1C [Example 500]
0.064	35.3	60	COc1cc(-c2cccc(-c3cccc(COc4cc(OCc5cncc(C#N)c5)c(CN[C@@](C)(CO)C(=O)O)cc4Cl)c3C)c2C)ccc1C1=NCCN1 [Example 501]
0.081	85.2	100	COc1cc(-c2cccc(-c3cccc(COc4cc(OCc5cncc(C#N)c5)c(CNC[C@@H](O)CC(=O)O)cc4Cl)c3C)c2C)ccc1C1=NCCN1 [Example 502]
0.064	42.1	81	Cc1c(COc2cc(OCc3cncc(C#N)c3)c(CN[C@@](C)(CO)C(=O)O)cc2Cl)cccc1-c1cccc(-c2ccc(C3=NCCN3)cc2)c1C [Example 503]
0.064	47.8	68	COc1nc(-c2cccc(-c3cccc(COc4cc(OCc5cncc(C#N)c5)c(CN[C@@](C)(CO)C(=O)O)cc4Cl)c3C)c2C)ccc1C1=NCCN1 [Example 504]
0.064	55	80	COc1nc(-c2cccc(-c3cccc(COc4cc(OCc5cncc(C#N)c5)c(CNC[C@@H](O)CC(=O)O)cc4Cl)c3C)c2C)ccc1C1=NCCN1 [Example 505]
0.239	172	204	COc1cc(-c2cccc(-c3cccc(COc4cc(OCc5cncc(C#N)c5)c(CN[C@@](C)(CO)C(=O)O)cc4Cl)c3C)c2C)ccc1CN [Example 506]
0.084	78	156	COc1cc(-c2cccc(-c3cccc(COc4cc(OCc5cncc(C#N)c5)c(CN[C@@](C)(CO)C(=O)O)cc4Cl)c3C)c2C)ccc1CNCC1CCC(=O)N1 (stereo partly drawn) [Example 508]
0.097	129	89	COc1ccc(-c2cccc(-c3cccc(COc4cc(OCc5cncc(C#N)c5)c(CN[C@@](C)(CO)C(=O)O)cc4Cl)c3C)c2C)cc1CNCC1CCC(=O)N1 (stereo partly drawn) [Example 509]
0.082	36.9	197	Cc1c(COc2cc(OCc3cncc(C#N)c3)c(CN[C@](C)(CO)C(=O)O)cc2Cl)cccc1-c1cccc(-c2ccc(OCCNCCO)cc2)c1C [Example 511]
0.064	91.7	154	Cc1c(COc2cc(OCc3cncc(C#N)c3)c(CN[C@@](C)(CO)C(=O)O)cc2Cl)cccc1-c1cccc(-c2ccc(OCCNC[C@@H]3CCC(=O)N3)cc2)c1C [Example 517]
0.064	96.1	159	Cc1c(COc2cc(OCc3cncc(C#N)c3)c(CN[C@@](C)(CO)C(=O)O)cc2Cl)cccc1-c1cccc(-c2ccc(OCCNC[C@H]3CCC(=O)N3)cc2)c1C [Example 518]
